Values joined by “and” are separate entries in the source; they are usually repeats but may differ in a detail not shown here. Identical values can stand only once.
Tests used:
Assay in all cases: Caliper, Mobility shift assay off-chip
MAPK12 (human) = MAPK12 (human) (UniProt P53778)
PIM2 (human) = PIM2 (human) (UniProt Q9P1W9)
PLK3 (human) = PLK3 (human) (UniProt Q9H4B4)
FGFR1 (human) = FGFR1 (human) (UniProt P11362)
IKBKB (human) = IKBKB (human) (UniProt O14920)
PRKCI (human) = PRKCI (human) (UniProt P41743)
PRKCI (human), sequence (P41743 whole entry, looked up): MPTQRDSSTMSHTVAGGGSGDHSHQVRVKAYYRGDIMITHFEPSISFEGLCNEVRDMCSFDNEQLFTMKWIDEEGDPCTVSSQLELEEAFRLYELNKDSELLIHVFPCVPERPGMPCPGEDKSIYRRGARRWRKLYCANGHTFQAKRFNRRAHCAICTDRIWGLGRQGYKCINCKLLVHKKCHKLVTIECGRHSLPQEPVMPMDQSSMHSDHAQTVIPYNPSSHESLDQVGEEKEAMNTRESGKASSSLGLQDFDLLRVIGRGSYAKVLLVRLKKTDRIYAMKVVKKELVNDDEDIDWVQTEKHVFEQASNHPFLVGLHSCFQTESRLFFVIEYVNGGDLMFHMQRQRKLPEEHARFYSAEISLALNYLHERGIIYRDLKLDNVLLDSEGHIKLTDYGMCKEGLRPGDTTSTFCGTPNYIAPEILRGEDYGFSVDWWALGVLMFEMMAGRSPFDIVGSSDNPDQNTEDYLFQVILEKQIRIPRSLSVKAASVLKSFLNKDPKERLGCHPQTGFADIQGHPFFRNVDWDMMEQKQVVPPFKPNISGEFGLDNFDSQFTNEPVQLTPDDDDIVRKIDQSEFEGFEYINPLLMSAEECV

MAPK11 (human) = MAPK11 (human) (UniProt Q15759)
MAPK14 (human) = MAPK14 (human) (UniProt Q16539)
MAPK14 (human), sequence (Q16539 whole entry, looked up): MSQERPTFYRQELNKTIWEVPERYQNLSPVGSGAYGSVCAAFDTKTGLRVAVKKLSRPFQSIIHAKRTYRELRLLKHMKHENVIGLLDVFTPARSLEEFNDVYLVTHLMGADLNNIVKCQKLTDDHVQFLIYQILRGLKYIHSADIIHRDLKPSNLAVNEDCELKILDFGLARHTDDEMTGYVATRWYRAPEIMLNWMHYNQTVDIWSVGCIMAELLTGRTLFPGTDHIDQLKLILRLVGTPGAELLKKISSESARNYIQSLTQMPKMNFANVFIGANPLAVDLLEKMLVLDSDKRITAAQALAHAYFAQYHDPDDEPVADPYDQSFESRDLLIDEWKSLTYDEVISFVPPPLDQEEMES

BRSK2 (human) = BRSK2 (human) (UniProt Q8IWQ3)
BRSK2 (human), sequence (Q8IWQ3 whole entry, looked up): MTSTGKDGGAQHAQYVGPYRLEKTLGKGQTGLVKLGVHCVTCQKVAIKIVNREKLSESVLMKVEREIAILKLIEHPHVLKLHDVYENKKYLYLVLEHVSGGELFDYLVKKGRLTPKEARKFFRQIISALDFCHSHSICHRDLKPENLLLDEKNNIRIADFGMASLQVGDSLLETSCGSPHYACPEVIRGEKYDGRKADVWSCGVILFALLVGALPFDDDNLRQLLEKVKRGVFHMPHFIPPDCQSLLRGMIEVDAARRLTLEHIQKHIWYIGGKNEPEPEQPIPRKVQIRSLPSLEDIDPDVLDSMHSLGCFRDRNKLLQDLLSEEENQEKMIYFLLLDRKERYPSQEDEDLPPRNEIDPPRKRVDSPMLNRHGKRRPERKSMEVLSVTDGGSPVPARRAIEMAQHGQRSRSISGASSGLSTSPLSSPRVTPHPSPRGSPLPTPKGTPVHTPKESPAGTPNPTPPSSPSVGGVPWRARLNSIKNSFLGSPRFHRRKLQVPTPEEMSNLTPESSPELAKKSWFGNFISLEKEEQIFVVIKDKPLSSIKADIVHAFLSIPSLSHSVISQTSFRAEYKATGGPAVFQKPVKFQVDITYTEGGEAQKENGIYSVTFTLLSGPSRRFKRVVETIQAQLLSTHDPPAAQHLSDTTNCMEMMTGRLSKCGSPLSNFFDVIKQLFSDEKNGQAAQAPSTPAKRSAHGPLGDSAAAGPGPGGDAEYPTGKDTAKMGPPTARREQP

RPS6KA5 KD1 KD2 (human) = RPS6KA5 KD1 KD2 (human) (UniProt O75582)
RPS6KA5 KD1 KD2 (human), sequence (O75582 whole entry, looked up): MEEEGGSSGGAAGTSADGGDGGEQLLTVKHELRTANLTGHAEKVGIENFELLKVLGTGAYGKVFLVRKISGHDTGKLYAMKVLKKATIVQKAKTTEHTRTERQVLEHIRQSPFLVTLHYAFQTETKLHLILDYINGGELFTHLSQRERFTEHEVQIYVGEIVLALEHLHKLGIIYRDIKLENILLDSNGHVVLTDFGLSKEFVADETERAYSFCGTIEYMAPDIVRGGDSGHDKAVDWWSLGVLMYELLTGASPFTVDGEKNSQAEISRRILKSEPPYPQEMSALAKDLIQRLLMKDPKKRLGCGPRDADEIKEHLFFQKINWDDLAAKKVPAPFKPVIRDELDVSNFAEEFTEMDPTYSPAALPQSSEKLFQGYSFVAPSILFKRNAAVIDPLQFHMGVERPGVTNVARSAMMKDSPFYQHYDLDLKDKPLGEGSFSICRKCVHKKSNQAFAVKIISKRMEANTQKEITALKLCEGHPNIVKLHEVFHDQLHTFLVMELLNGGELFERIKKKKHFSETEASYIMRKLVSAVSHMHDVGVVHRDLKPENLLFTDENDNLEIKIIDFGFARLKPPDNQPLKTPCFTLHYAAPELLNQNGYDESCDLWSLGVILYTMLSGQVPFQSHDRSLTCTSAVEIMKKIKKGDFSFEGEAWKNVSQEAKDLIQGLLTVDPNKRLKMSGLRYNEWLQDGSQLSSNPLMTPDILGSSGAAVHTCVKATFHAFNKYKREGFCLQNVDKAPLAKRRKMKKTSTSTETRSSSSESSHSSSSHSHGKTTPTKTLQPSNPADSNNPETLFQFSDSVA

RPS6KA1 KD1 KD2 (human) = RPS6KA1 KD1 KD2 (human) (UniProt Q15418)
PRKCG (human) = PRKCG (human) (UniProt P05129)
PRKCA (human) = PRKCA (human) (UniProt P17252)
ROCK1 (human) = ROCK1 (human) (UniProt Q13464)
ZAP70 (human) = ZAP70 (human) (UniProt P43403)
KDR (human) = KDR (human) (UniProt P35968)
MAPKAPK5 (human) = MAPKAPK5 (human) (UniProt Q8IW41)
PIM1 (human) = PIM1 (human) (UniProt P11309)
PIM1 (human), sequence (P11309 whole entry, looked up): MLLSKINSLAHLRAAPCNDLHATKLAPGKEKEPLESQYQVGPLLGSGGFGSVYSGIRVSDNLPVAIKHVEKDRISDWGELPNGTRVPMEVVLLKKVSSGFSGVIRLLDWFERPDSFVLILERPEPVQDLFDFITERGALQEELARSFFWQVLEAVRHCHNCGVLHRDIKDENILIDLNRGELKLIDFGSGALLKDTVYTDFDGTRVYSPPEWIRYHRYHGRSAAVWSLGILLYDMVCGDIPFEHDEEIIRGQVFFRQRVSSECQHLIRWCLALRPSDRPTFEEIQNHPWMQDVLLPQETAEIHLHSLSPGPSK

MAPKAPK2 (human) = MAPKAPK2 (human) (UniProt P49137)
TEK (human) = TEK (human) (UniProt Q02763)
EPHA2 (human) = EPHA2 (human) (UniProt P29317)
CSK (human) = CSK (human) (UniProt P41240)
FGFR3 (human) = FGFR3 (human) (UniProt P22607)
FLT3 (human) = FLT3 (human) (UniProt P36888)
NEK6 (human) = NEK6 (human) (UniProt Q9HC98)
EPHA4 (human) = EPHA4 (human) (UniProt P54764)
CDK2 CCNA2 (human) = CDK2 CCNA2 (human) (UniProt P24941+P20248)
CHEK1 (human) = CHEK1 (human) (UniProt O14757)
RAF1 (human) = RAF1 (human) (UniProt P04049)
NEK2 (human) = NEK2 (human) (UniProt P51955)
MAPK13 (human) = MAPK13 (human) (UniProt O15264)
MAPK13 (human), sequence (O15264 whole entry, looked up): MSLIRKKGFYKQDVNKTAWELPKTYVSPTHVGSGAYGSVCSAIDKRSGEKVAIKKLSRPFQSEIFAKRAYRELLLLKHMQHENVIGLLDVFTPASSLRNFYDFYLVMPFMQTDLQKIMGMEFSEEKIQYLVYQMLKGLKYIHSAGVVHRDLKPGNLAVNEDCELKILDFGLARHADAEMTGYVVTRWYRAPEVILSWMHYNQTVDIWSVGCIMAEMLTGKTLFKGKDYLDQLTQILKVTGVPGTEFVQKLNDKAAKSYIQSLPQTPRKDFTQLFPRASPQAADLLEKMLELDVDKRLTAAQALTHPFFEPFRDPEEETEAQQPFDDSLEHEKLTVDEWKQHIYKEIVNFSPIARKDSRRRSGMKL

AKT1 (human) = AKT1 (human) (UniProt P31749)
SRC (human) = SRC (human) (UniProt P12931)
SRC (human), sequence (P12931 whole entry, looked up): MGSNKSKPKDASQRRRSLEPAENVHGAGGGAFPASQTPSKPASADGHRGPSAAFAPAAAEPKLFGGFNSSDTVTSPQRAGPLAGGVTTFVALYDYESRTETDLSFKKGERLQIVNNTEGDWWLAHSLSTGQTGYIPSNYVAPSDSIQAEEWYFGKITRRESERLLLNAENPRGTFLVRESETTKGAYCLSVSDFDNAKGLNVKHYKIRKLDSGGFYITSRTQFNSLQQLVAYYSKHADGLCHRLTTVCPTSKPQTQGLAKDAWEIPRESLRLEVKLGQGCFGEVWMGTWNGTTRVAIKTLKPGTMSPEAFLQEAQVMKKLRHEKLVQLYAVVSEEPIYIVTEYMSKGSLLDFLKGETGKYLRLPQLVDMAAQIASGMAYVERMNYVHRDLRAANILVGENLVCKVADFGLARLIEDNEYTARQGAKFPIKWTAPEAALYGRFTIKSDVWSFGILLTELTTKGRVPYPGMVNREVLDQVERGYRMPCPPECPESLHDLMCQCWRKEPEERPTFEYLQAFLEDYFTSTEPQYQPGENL

RPS6KB1 (human) = RPS6KB1 (human) (UniProt P23443)
KIT (human) = KIT (human) (UniProt P10721)
PAK4 (human) = PAK4 (human) (UniProt O96013)
RIPK2 (human) = RIPK2 (human) (UniProt O43353)
RIPK2 (human), sequence (O43353 whole entry, looked up): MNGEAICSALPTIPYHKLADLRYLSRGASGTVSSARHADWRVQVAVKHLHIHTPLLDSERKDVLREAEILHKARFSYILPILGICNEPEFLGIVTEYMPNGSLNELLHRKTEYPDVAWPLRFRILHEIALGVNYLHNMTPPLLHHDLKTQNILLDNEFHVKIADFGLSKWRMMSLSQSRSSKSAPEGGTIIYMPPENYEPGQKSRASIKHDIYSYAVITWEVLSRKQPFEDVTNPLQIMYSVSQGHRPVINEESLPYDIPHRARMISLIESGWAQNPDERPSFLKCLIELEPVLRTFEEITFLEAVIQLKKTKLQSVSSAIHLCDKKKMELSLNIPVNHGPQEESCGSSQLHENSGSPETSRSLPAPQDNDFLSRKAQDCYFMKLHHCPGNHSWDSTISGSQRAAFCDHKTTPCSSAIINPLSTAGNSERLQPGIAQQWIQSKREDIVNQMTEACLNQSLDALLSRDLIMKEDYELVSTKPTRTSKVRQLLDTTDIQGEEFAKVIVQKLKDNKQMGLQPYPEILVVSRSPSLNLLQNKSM

ALK (human) = ALK (human) (UniProt Q9UM73)
BTK (human) = BTK (human) (UniProt Q06187)
EGFR (human) = EGFR (human) (UniProt P00533)
IGF1R (human) = IGF1R (human) (UniProt P08069)

PLK3 (human), sequence (Q9H4B4 whole entry, looked up): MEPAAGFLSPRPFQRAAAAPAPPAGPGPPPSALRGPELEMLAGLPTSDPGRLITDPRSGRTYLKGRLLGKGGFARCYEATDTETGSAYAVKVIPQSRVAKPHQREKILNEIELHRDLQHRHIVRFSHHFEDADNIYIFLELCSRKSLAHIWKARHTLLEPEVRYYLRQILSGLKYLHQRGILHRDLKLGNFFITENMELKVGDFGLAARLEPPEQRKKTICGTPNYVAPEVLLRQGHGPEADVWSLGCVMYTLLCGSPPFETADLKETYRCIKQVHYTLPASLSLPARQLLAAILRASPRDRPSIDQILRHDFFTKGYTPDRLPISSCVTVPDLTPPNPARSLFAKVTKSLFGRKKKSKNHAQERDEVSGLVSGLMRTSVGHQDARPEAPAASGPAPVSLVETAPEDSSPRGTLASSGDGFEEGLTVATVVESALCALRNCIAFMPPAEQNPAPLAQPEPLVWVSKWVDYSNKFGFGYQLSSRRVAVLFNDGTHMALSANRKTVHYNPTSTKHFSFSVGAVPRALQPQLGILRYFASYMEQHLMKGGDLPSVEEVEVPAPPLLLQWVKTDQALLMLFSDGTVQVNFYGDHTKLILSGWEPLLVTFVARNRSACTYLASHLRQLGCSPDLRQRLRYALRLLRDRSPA

CC(C)(C)c1nc2c3ccc(F)cc3c3c(=O)[nH]ccc3c2[nH]1
residual activity (MAPK12 (human); compound 10.0 µM): 46%
residual activity (PIM2 (human); compound 10.0 µM): 36%
residual activity (PLK3 (human); compound 10.0 µM): 54%
residual activity (FGFR1 (human); compound 10.0 µM): 32%
residual activity (IKBKB (human); compound 10.0 µM): 15%
residual activity (PRKCI (human); compound 10.0 µM): 73%
residual activity (MAPK11 (human); compound 10.0 µM): 25%
residual activity (MAPK14 (human); compound 10.0 µM): 51%
residual activity (BRSK2 (human); compound 10.0 µM): 1%
residual activity (RPS6KA5 KD1 KD2 (human); compound 10.0 µM): 25%
residual activity (RPS6KA1 KD1 KD2 (human); compound 10.0 µM): 68%
residual activity (PRKCG (human); compound 10.0 µM): 21%
residual activity (PRKCA (human); compound 10.0 µM): 8%
residual activity (ROCK1 (human); compound 10.0 µM): 26%
residual activity (ZAP70 (human); compound 10.0 µM): 117%
residual activity (KDR (human); compound 10.0 µM): 92%
residual activity (MAPKAPK5 (human); compound 10.0 µM): 17%
residual activity (PIM1 (human); compound 10.0 µM): 49%
residual activity (MAPKAPK2 (human); compound 10.0 µM): 17%
residual activity (TEK (human); compound 10.0 µM): 105%
residual activity (EPHA2 (human); compound 10.0 µM): 96%
residual activity (CSK (human); compound 10.0 µM): 101%
residual activity (FGFR3 (human); compound 10.0 µM): 30%
residual activity (FLT3 (human); compound 10.0 µM): 25%
residual activity (NEK6 (human); compound 10.0 µM): 48%
residual activity (EPHA4 (human); compound 10.0 µM): 101%
residual activity (CDK2 CCNA2 (human); compound 10.0 µM): 53%
residual activity (CHEK1 (human); compound 10.0 µM): 10%
residual activity (RAF1 (human); compound 10.0 µM): 128%
residual activity (NEK2 (human); compound 10.0 µM): 96%
residual activity (MAPK13 (human); compound 10.0 µM): 46%
residual activity (AKT1 (human); compound 10.0 µM): 39%
residual activity (SRC (human); compound 10.0 µM): 94%
residual activity (RPS6KB1 (human); compound 10.0 µM): 17%
residual activity (KIT (human); compound 10.0 µM): 40%
residual activity (PAK4 (human); compound 10.0 µM): 78%
residual activity (RIPK2 (human); compound 10.0 µM): 20%
residual activity (ALK (human); compound 10.0 µM): 26%
residual activity (BTK (human); compound 10.0 µM): 83%
residual activity (EGFR (human); compound 10.0 µM): 75%
residual activity (IGF1R (human); compound 10.0 µM): 61%

COc1ccc(C#Cc2ccc3ncc4ncn(-c5ccc(CCN)cc5)c4c3c2)cc1
residual activity (MAPK12 (human); compound 10.0 µM): 85%
residual activity (PIM2 (human); compound 10.0 µM): 24%
residual activity (PLK3 (human); compound 10.0 µM): 110%
residual activity (FGFR1 (human); compound 10.0 µM): 4%
residual activity (IKBKB (human); compound 10.0 µM): 39%
residual activity (PRKCI (human); compound 10.0 µM): 107%
residual activity (MAPK11 (human); compound 10.0 µM): 81%
residual activity (MAPK14 (human); compound 10.0 µM): 72%
residual activity (BRSK2 (human); compound 10.0 µM): 57%
residual activity (RPS6KA5 KD1 KD2 (human); compound 10.0 µM): 39%
residual activity (RPS6KA1 KD1 KD2 (human); compound 10.0 µM): 13%
residual activity (PRKCG (human); compound 10.0 µM): 88%
residual activity (PRKCA (human); compound 10.0 µM): 94%
residual activity (ROCK1 (human); compound 10.0 µM): 46%
residual activity (ZAP70 (human); compound 10.0 µM): 99%
residual activity (KDR (human); compound 10.0 µM): 50%
residual activity (MAPKAPK5 (human); compound 10.0 µM): 50%
residual activity (PIM1 (human); compound 10.0 µM): 3%
residual activity (MAPKAPK2 (human); compound 10.0 µM): 78%
residual activity (TEK (human); compound 10.0 µM): 5%
residual activity (EPHA2 (human); compound 10.0 µM): 95%
residual activity (CSK (human); compound 10.0 µM): 82%
residual activity (FGFR3 (human); compound 10.0 µM): 25%
residual activity (FLT3 (human); compound 10.0 µM): 8%
residual activity (NEK6 (human); compound 10.0 µM): 109%
residual activity (EPHA4 (human); compound 10.0 µM): 77%
residual activity (CDK2 CCNA2 (human); compound 10.0 µM): 118%
residual activity (CHEK1 (human); compound 10.0 µM): 75%
residual activity (RAF1 (human); compound 10.0 µM): 94%
residual activity (NEK2 (human); compound 10.0 µM): 80%
residual activity (MAPK13 (human); compound 10.0 µM): 43%
residual activity (AKT1 (human); compound 10.0 µM): 25%
residual activity (SRC (human); compound 10.0 µM): 14%
residual activity (RPS6KB1 (human); compound 10.0 µM): 0%
residual activity (KIT (human); compound 10.0 µM): 71%
residual activity (PAK4 (human); compound 10.0 µM): 106%
residual activity (RIPK2 (human); compound 10.0 µM): 78%
residual activity (ALK (human); compound 10.0 µM): 42%
residual activity (BTK (human); compound 10.0 µM): 75%
residual activity (EGFR (human); compound 10.0 µM): 71%
residual activity (IGF1R (human); compound 10.0 µM): 66%

C[C@@H](Nc1nc2c(C#CC3CC3)c[nH]c(=O)c2c2cc(-c3cn[nH]c3)ccc12)C(C)(C)C
residual activity (MAPK12 (human); compound 1.0 µM): 106%
residual activity (PIM2 (human); compound 1.0 µM): 99%
residual activity (PLK3 (human); compound 1.0 µM): 85%
residual activity (FGFR1 (human); compound 1.0 µM): 29%
residual activity (IKBKB (human); compound 1.0 µM): 92%
residual activity (PRKCI (human); compound 1.0 µM): 98%
residual activity (MAPK11 (human); compound 1.0 µM): 110%
residual activity (MAPK14 (human); compound 1.0 µM): 107%
residual activity (BRSK2 (human); compound 1.0 µM): 15%
residual activity (RPS6KA5 KD1 KD2 (human); compound 1.0 µM): 83%
residual activity (RPS6KA1 KD1 KD2 (human); compound 1.0 µM): 20%
residual activity (PRKCG (human); compound 1.0 µM): 95%
residual activity (PRKCA (human); compound 1.0 µM): 108%
residual activity (ROCK1 (human); compound 1.0 µM): 102%
residual activity (ZAP70 (human); compound 1.0 µM): 104%
residual activity (KDR (human); compound 1.0 µM): 42%
residual activity (MAPKAPK5 (human); compound 1.0 µM): 75%
residual activity (PIM1 (human); compound 1.0 µM): 107%
residual activity (MAPKAPK2 (human); compound 1.0 µM): 115%
residual activity (TEK (human); compound 1.0 µM): 109%
residual activity (EPHA2 (human); compound 1.0 µM): 131%
residual activity (CSK (human); compound 1.0 µM): 75%
residual activity (FGFR3 (human); compound 1.0 µM): 60%
residual activity (FLT3 (human); compound 1.0 µM): 43%
residual activity (NEK6 (human); compound 1.0 µM): 110%
residual activity (EPHA4 (human); compound 1.0 µM): 103%
residual activity (CDK2 CCNA2 (human); compound 1.0 µM): 104%
residual activity (CHEK1 (human); compound 1.0 µM): 46%
residual activity (RAF1 (human); compound 1.0 µM): 107%
residual activity (NEK2 (human); compound 1.0 µM): 116%
residual activity (MAPK13 (human); compound 1.0 µM): 108%
residual activity (AKT1 (human); compound 1.0 µM): 98%
residual activity (SRC (human); compound 1.0 µM): 83% and 87%
residual activity (RPS6KB1 (human); compound 1.0 µM): 45%
residual activity (KIT (human); compound 1.0 µM): 109%
residual activity (PAK4 (human); compound 1.0 µM): 95%
residual activity (RIPK2 (human); compound 1.0 µM): 51%
residual activity (ALK (human); compound 1.0 µM): 77%
residual activity (BTK (human); compound 1.0 µM): 79%
residual activity (EGFR (human); compound 1.0 µM): 116%
residual activity (IGF1R (human); compound 1.0 µM): 85%

O=C(N[C@@H](COc1ccc2[nH]c(=O)[nH]c2c1)c1ccccc1)c1cccn(Cc2ccc(F)c(F)c2)c1=O
residual activity (MAPK12 (human); compound 10.0 µM): 115%
residual activity (PIM2 (human); compound 10.0 µM): 100%
residual activity (PLK3 (human); compound 10.0 µM): 96%
residual activity (FGFR1 (human); compound 10.0 µM): 86%
residual activity (IKBKB (human); compound 10.0 µM): 100%
residual activity (PRKCI (human); compound 10.0 µM): 97%
residual activity (MAPK11 (human); compound 10.0 µM): 100%
residual activity (MAPK14 (human); compound 10.0 µM): 107%
residual activity (BRSK2 (human); compound 10.0 µM): 111%
residual activity (RPS6KA5 KD1 KD2 (human); compound 10.0 µM): 109%
residual activity (RPS6KA1 KD1 KD2 (human); compound 10.0 µM): 107%
residual activity (PRKCG (human); compound 10.0 µM): 104%
residual activity (PRKCA (human); compound 10.0 µM): 98%
residual activity (ROCK1 (human); compound 10.0 µM): 97%
residual activity (ZAP70 (human); compound 10.0 µM): 100%
residual activity (KDR (human); compound 10.0 µM): 101%
residual activity (MAPKAPK5 (human); compound 10.0 µM): 98%
residual activity (PIM1 (human); compound 10.0 µM): 104%
residual activity (MAPKAPK2 (human); compound 10.0 µM): 98%
residual activity (TEK (human); compound 10.0 µM): 105%
residual activity (EPHA2 (human); compound 10.0 µM): 127%
residual activity (CSK (human); compound 10.0 µM): 114%
residual activity (FGFR3 (human); compound 10.0 µM): 122%
residual activity (FLT3 (human); compound 10.0 µM): 103%
residual activity (NEK6 (human); compound 10.0 µM): 99%
residual activity (EPHA4 (human); compound 10.0 µM): 101%
residual activity (CDK2 CCNA2 (human); compound 10.0 µM): 99%
residual activity (CHEK1 (human); compound 10.0 µM): 105%
residual activity (RAF1 (human); compound 10.0 µM): 109%
residual activity (NEK2 (human); compound 10.0 µM): 94%
residual activity (MAPK13 (human); compound 10.0 µM): 114%
residual activity (AKT1 (human); compound 10.0 µM): 107%
residual activity (SRC (human); compound 10.0 µM): 94% and 101%
residual activity (RPS6KB1 (human); compound 10.0 µM): 104%
residual activity (KIT (human); compound 10.0 µM): 107%
residual activity (PAK4 (human); compound 10.0 µM): 105%
residual activity (RIPK2 (human); compound 10.0 µM): 101%
residual activity (ALK (human); compound 10.0 µM): 116%
residual activity (BTK (human); compound 10.0 µM): 107%
residual activity (EGFR (human); compound 10.0 µM): 89%
residual activity (IGF1R (human); compound 10.0 µM): 116%
